# Columns and labels:
# JAK2 = JAK2 (Homo sapiens (Human), UniProt O60674); assay: Biochemical JAK and Tyk2 kinase assays (LanthaScreen): JAK2; conditions: 1 h pre-incubation, ATP at Km; pIC50 converted to pKi by Cheng-Prusoff
# Outline: (§1)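 GST-JAK + GFP-STAT1 peptide, HEPES pH 7.5/MgCl2/EGTA/Brij-35 buffer; cpd preincubation 1 h RT; ATP start, 1 h RT; stop with 10 mM EDTA + 2 nM Tb-anti-pSTAT1; TR-FRET 520/495. 4-parameter IC50 → pKi (Cheng-Prusoff).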
# JAK3 = JAK3 (Homo sapiens (Human), UniProt P52333); assay: Biochemical JAK and Tyk2 kinase assays (LanthaScreen): JAK3; conditions: for Ki: 1 h pre-incubation, ATP at Km, pIC50 converted to pKi by Cheng-Prusoff, read-out: JAK 3 (pKi) (converted); for JAK3 (pKi)-JAK1 (pKi): difference of pKi values, selectivity JAK3 over JAK1
# JAK3, sequence (P52333 whole entry): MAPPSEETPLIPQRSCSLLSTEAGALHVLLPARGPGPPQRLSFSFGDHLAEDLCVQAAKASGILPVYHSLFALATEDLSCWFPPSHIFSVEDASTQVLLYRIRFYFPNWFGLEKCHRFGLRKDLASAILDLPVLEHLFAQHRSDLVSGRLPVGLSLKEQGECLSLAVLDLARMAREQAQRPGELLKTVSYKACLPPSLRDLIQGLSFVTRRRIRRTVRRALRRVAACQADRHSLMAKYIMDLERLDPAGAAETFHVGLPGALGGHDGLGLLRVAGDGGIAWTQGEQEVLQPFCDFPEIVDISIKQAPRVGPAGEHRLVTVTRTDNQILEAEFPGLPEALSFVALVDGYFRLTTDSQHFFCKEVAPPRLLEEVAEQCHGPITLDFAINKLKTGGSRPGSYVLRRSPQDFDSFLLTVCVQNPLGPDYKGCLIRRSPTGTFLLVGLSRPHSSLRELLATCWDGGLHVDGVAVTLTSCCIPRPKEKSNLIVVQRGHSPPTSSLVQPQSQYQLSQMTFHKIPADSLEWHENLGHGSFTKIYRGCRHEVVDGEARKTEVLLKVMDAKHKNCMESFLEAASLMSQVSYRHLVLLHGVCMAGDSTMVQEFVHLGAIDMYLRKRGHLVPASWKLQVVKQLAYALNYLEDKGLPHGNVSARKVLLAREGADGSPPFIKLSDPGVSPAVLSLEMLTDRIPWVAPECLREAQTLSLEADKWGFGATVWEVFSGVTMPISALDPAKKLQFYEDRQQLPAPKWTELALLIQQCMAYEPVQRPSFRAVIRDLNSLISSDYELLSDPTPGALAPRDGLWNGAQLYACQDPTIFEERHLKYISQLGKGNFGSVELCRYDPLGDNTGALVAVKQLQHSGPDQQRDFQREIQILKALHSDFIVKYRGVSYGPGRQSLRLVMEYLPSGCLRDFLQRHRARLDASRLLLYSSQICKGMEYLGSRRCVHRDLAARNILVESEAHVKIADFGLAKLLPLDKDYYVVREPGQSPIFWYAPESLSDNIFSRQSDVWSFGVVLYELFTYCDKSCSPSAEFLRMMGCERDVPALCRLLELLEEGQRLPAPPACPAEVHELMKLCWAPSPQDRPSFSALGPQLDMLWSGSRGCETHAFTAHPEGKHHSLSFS
# Outline: as §1
# [1] = tested on: IL-2 stimulated pSTAT5 in Tall-1 T cells (JAK3); assay: Cellular JAK3 potency assay: inhibition of IL-2 stimulated pSTAT5 in Tall-1 T cells; format: cell-based; conditions: IL-2 300 ng/ml, pSTAT5 AlphaLisa, Tall-1 human T cell line; read-out: Tall-1 (pIC50) (converted)
# Outline: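 Human Tall-1 T cells (45,000/well) preincubated with compound 1 h at 37 °C, then stimulated with IL-2 (final 300 ng/ml) for 30 min. Lysates read for pSTAT5 (Tyr694/699) by AlphaLISA luminescence. IC50 from signal-versus-concentration curves, reported as pIC50 (mean±SD).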
# JAK2, sequence (O60674 whole entry): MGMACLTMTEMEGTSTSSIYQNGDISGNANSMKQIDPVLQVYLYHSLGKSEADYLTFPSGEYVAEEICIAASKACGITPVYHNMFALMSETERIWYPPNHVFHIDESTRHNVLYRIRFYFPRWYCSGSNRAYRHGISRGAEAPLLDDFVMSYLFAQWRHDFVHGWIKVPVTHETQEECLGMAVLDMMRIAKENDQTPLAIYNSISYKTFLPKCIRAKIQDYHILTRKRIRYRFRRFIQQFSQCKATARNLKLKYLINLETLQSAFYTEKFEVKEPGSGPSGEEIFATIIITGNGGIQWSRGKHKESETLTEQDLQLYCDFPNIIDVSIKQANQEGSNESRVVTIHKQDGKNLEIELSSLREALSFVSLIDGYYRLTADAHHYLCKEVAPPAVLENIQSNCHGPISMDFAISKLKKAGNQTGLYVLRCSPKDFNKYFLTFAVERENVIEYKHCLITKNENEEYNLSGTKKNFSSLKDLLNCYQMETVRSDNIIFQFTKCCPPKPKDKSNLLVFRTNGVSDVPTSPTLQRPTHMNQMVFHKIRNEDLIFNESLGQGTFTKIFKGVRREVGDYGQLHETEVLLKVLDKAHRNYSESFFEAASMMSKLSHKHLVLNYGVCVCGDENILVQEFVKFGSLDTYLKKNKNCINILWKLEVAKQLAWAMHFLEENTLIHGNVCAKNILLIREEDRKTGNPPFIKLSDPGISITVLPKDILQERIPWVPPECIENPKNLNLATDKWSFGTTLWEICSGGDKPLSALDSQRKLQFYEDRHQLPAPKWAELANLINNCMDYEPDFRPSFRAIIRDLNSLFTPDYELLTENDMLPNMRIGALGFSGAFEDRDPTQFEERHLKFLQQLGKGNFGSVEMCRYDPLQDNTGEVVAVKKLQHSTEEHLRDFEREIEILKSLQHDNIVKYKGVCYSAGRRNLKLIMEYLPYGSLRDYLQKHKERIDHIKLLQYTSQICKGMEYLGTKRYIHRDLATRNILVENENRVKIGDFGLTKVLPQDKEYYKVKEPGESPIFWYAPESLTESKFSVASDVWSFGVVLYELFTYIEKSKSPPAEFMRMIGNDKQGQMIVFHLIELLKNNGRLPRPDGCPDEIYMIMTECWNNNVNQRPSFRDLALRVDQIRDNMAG
compound,measurement,setting,value
"C=CC(=O)N1CC(COc2cc(-c3cc(F)c(O)cc3CC)cn3cncc23)C1 [Example 13, 1-(3-(((6-(2-ethyl-5-fluoro-4-hydroxyphenyl)imidazo[1,5-a]pyridin-8-yl)oxy)methyl)azetidin-1-yl)prop-2-en-1-one]",JAK 2 (pKi),JAK2,E (E represents a pKi value of 7 or below (Ki of 100 nM or above))
same,Ki,JAK3,0.1 to 1 nM
same,JAK3 (pKi)-JAK1 (pKi),JAK3,A (A represents a value of 3 or above)
same,IC50,[1],≤ 31.6 nM
"C=CC(=O)N1CC(COc2cc(-c3ccc(O)c(Cl)c3)cn3cncc23)C1 [Example 12, 1-(3-(((6-(3-chloro-4-hydroxyphenyl)imidazo[1,5-a]pyridin-8-yl)oxy)methyl)azetidin-1-yl)prop-2-en-1-one]",JAK 2 (pKi),JAK2,E (E represents a pKi value of 7 or below (Ki of 100 nM or above))
same,Ki,JAK3,0.1 to 1 nM
same,JAK3 (pKi)-JAK1 (pKi),JAK3,A (A represents a value of 3 or above)
same,IC50,[1],31.6 to 200 nM

# — US10851102B2, “Imidazole and triazole containing bicyclic compounds as JAK inhibitors” (THERAVANCE BIOPHARMA R&D IP, LLC, priority 2019, dated 2020)
